Experimental data from US10150728B2, “Alkylene derivatives” (Shionogi & Co., Ltd., priority 2013, dated 2018).

target: recombinant human ACC2 (Homo sapiens (Human), UniProt O00763); assay: Measurement of inhibitory activity on human ACC2 (MALDI-TOF MS, acetyl CoA to malonyl CoA conversion); assay type: biochemical; details: Tables 155-159
In short: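 His-tagged human ACC2 (residues 27–2458) from baculovirus-infected Sf-9 cells was preincubated 1 h in pH 7.4 HEPES-KOH buffer with MgCl2, 6-10 mM potassium citrate, glutathione and BSA. Substrate solution held 1 mM ATP, 0.8 mM acetyl CoA and 25-50 mM bicarbonate. After 1–3 h at room temperature, malonyl CoA/(malonyl+acetyl CoA) was read by negative-mode MALDI-TOF MS; citrate, bicarbonate and time varied by enzyme lot.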

Chain of recombinant human ACC2 (O00763 27-2458): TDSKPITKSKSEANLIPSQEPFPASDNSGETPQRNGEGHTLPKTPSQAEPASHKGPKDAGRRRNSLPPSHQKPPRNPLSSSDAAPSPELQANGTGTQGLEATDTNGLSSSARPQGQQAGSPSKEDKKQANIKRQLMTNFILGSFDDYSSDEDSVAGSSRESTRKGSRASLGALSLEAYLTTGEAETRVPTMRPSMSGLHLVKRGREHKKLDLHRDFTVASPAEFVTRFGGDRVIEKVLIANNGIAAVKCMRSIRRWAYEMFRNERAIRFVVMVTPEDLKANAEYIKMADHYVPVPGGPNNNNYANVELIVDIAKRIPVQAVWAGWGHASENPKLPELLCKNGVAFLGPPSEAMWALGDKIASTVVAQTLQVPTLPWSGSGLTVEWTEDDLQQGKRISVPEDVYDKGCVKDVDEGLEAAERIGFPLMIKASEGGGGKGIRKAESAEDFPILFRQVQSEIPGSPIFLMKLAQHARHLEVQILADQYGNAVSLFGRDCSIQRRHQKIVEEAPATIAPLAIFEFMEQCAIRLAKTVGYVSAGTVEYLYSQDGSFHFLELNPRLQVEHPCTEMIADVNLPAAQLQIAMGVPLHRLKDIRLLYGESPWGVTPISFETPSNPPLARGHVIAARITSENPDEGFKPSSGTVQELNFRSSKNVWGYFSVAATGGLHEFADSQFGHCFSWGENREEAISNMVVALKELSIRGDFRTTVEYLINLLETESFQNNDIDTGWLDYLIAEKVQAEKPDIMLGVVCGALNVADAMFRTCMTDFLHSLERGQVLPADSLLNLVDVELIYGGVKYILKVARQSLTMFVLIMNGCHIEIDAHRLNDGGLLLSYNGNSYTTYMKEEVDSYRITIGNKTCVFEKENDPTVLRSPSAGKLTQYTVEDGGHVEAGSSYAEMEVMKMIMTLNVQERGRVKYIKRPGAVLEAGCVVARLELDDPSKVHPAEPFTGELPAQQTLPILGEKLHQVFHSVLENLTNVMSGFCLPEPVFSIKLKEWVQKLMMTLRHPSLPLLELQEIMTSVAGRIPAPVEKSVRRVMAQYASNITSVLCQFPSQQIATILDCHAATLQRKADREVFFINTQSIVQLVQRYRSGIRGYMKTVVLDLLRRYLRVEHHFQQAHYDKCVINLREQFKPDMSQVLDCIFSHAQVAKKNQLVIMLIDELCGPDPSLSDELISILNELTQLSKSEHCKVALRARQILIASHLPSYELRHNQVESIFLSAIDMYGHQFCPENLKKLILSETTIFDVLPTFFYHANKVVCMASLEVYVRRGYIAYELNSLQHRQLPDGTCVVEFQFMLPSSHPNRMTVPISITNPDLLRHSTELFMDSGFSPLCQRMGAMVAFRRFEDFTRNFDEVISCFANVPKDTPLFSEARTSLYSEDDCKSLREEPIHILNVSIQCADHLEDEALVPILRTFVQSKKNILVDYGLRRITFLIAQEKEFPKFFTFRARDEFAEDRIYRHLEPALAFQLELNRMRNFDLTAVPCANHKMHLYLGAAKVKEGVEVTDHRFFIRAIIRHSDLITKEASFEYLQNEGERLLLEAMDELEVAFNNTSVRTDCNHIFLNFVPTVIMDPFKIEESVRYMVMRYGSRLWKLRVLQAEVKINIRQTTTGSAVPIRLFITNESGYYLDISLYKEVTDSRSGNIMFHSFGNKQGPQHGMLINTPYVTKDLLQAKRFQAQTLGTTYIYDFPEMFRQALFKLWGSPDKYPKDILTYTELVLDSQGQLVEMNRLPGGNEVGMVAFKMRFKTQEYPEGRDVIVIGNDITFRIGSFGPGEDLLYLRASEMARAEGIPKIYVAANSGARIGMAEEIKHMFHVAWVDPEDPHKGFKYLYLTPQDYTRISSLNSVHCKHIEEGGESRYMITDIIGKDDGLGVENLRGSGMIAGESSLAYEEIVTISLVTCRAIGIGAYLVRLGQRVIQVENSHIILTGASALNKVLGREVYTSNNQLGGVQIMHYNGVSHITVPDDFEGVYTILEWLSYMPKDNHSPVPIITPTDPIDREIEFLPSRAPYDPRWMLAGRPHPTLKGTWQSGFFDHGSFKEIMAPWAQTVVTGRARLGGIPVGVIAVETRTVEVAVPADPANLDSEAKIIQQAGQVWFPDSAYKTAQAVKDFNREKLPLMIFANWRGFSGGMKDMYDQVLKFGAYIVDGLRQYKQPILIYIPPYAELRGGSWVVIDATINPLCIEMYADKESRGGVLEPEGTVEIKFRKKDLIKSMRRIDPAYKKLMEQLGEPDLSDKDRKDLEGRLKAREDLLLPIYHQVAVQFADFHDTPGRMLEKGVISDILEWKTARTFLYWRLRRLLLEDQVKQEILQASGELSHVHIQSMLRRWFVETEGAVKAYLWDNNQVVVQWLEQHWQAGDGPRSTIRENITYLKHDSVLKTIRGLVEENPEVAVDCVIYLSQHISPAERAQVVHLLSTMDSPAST

Row | Compound | IC50
1 | CC(=O)N[C@@H](C)[C@H](C)O[C@H]1CC[C@H](Oc2nc3c(F)cc(OCC(F)F)c(F)c3n2C)CC1 [Compound I-659] | 0.023 µM
2 | CCOc1ccc2nc(O[C@H]3CC[C@H](OC[C@H](C)NC(C)=O)CC3)n(C)c2c1-c1ccccc1 [Compound I-661] | 0.457 µM
3 | CC(=O)N[C@@H](C)CO[C@H]1CC[C@H](Oc2nc3cnc(OCC4CC4)c(Cl)c3n2C)CC1 [Compound I-662] | 0.005 µM
4 | CC(=O)N[C@@H](C)CO[C@H]1CC[C@H](Oc2nc3c(C#N)cc(C4CC4)cc3n2C)CC1 [Compound I-663] | 0.7 µM
5 | CC(=O)N[C@@H](C)CO[C@H]1CC[C@H](Oc2nc3cnc(OC4(C)CC4)c(Cl)c3n2C)CC1 [Compound I-664] | 0.011 µM
6 | CCOc1cc(F)c2nc(O[C@H]3CC[C@H](OC[C@H](C)NC(C)=O)CC3)n(C)c2c1F [Compound I-665] | 0.004 µM
7 | COc1cc(OCc2ccccc2)cc2c1nc(O[C@H]1CC[C@H](OC[C@H](C)NC(C)=O)CC1)n2C [Compound I-666] | 0.298 µM
8 | CC(=O)N[C@@H](C)CO[C@H]1CC[C@H](Oc2nc3cnc(OC4CC4)c(F)c3n2C)CC1 [Compound I-667] | 0.008 µM
9 | C[C@@H](CO[C@H]1CC[C@H](Oc2nc3c(F)cc(OC4CC4)c(F)c3n2C)CC1)NC(=O)CO [Compound I-668] | 0.007 µM
10 | CC(=O)N[C@@H](CO)CO[C@H]1CC[C@H](Oc2nc3cnc(OCC(F)F)c(Cl)c3n2C)CC1 [Compound I-669] | 0.62 µM
11 | C[C@@H](CO[C@H]1CC[C@H](Oc2nc3c(F)cc(OCC(F)F)c(F)c3n2C)CC1)NC(N)=O [Compound I-670] | 0.011 µM
12 | C[C@@H](CO[C@H]1CC[C@H](Oc2nc3c(F)cc(OC4CC4)c(F)c3n2C)CC1)NS(C)(=O)=O [Compound I-671] | 0.011 µM
13 | COC(=O)N[C@@H](C)CO[C@H]1CC[C@H](Oc2nc3c(F)cc(OCC(F)F)c(F)c3n2C)CC1 [Compound I-672] | 0.03 µM
14 | CC(=O)N[C@@H](C)CO[C@H]1CC[C@H](Oc2nc3c(C(N)=O)cc(OC4CC4)c(F)c3n2C)CC1 [Compound I-673] | 0.65 µM
15 | C[C@@H](CC[C@@H]1CC[C@@H](Oc2nc3c(F)cc(OCC(F)F)c(Cl)c3n2C)CO1)NC(N)=O [Compound I-674] | 0.007 µM
16 | CC(=O)N[C@@H](C)[C@H](C)O[C@H]1CC[C@H](Oc2nc3cnc(OCC(F)F)c(Cl)c3n2C)CC1 [Compound I-675] | 0.018 µM
17 | CC(=O)N[C@@H](C)CO[C@H]1CC[C@H](Oc2nc3ccc(OCC(F)F)c(F)c3n2C)CC1 [Compound I-677] | 0.013 µM
18 | CC(=O)N[C@@H](C)CO[C@H]1CC[C@H](Oc2nc3c(Cl)cc(Br)cc3n2C)CC1 [Compound I-678] | 0.123 µM
19 | CC(=O)N[C@@H](C)CO[C@H]1CC[C@H](Oc2nc3c(C#N)cc(OCC(F)F)cc3n2C)CC1 [Compound I-679] | 0.625 µM
20 | CC(=O)N[C@@H](C)CO[C@H]1CC[C@H](Oc2nc3c(Br)cc(OCC(F)F)cc3n2C)CC1 [Compound I-680] | 0.14 µM
21 | C[C@@H](CC[C@H]1CC[C@H](Oc2nc3cnc(OC4CC4)c(Cl)c3n2C)CC1)NC(N)=O [Compound I-682] | 0.005 µM
22 | C[C@@H](CO[C@H]1CC[C@H](Oc2nc3c(F)cc(OC4CC4)c(F)c3n2C)CC1)NC(=O)C(F)F [Compound I-683] | 0.003 µM
23 | CC(=O)N[C@@H](C)CC[C@@H]1CC[C@@H](Oc2nc3cnc(OCC(F)F)c(Cl)c3n2C)CO1 [Compound I-684] | 0.006 µM
24 | CCOc1c(F)cc2c(nc(O[C@H]3CC[C@H](OC[C@H](C)NC(C)=O)CC3)n2C)c1F [Compound I-685] | 0.17 µM
25 | CCOc1nc(F)c2nc(O[C@H]3CC[C@H](OC[C@H](C)NC(C)=O)CC3)n(C)c2c1Cl [Compound I-686] | 0.005 µM
26 | C[C@@H](CO[C@H]1CC[C@H](Oc2nc3c(F)cc(OCC(F)F)c(Cl)c3n2C)CC1)NC(N)=O [Compound I-687] | 0.014 µM
27 | CC(=O)N[C@@H](C)CC[C@@H]1CC[C@@H](Oc2nc3c(F)cc(OCC(F)F)c(Cl)c3n2C)CO1 [Compound I-688] | 0.004 µM
28 | CC(=O)N[C@@H](C)[C@H](C)O[C@H]1CC[C@H](Oc2nc3cnc(OC4CC4)c(F)c3n2C)CC1 [Compound I-689] | 0.025 µM

Other lines, results leading:

Row | IC50 | Compound
29 | 0.025 µM | CC(=O)N[C@@H](C)CO[C@H]1CC[C@H](Oc2nc3ccc(Br)c(F)c3n2C)CC1 [Compound I-691]
30 | 0.034 µM | CCOc1cc(Cl)c2nc(O[C@H]3CC[C@H](OC[C@H](C)NC(C)=O)CC3)n(C)c2c1 [Compound I-692]
31 | 0.008 µM | CC(=O)N[C@@H](C)CO[C@H]1CC[C@H](Oc2nc3cnc(OC4CC(F)(F)C4)c(Cl)c3n2C)CC1 [Compound I-693]
32 | 0.013 µM | CCOc1ncc2nc(O[C@H]3CC[C@H](OC[C@H](C)NC(C)=O)CC3)n(C)c2c1F [Compound I-694]
33 | 0.096 µM | CC(=O)N[C@@H](C)CO[C@H]1CC[C@H](Oc2nc3cnc(C4CC4)c(Cl)c3n2C)CC1 [Compound I-695]
34 | 0.497 µM | COC(=O)NC(=O)N[C@@H](C)CO[C@H]1CC[C@H](Oc2nc3cnc(OC4CC4)c(Cl)c3n2C)CC1 [Compound I-696]
35 | 0.004 µM | C[C@@H](CO[C@H]1CC[C@H](Oc2nc3c(F)cc(OC4CC4)c(F)c3n2C)CC1)NC(N)=O [Compound I-697]
36 | 0.003 µM | CCOc1c(F)cc2nc(O[C@H]3CC[C@H](OC[C@H](C)NC(C)=O)CC3)n(C)c2c1F [Compound I-698]
37 | 0.009 µM | CC(=O)N[C@@H](CF)CO[C@H]1CC[C@H](Oc2nc3c(F)cc(OCC(F)F)c(F)c3n2C)CC1 [Compound I-700]
38 | 0.023 µM | CNC(=O)N[C@@H](C)CO[C@H]1CC[C@H](Oc2nc3c(F)cc(OCC(F)F)c(F)c3n2C)CC1 [Compound I-701]
39 | 0.015 µM | CC(=O)N[C@@H](C)CO[C@H]1OC[C@@H](Oc2nc3c(F)cc(OCC(F)F)c(F)c3n2C)C[C@@H]1C [Compound I-702]
40 | 0.03 µM | CC(=O)N[C@@H](C)CO[C@H]1CC[C@H](Oc2nc3c(C#N)c(F)c(OCC(F)F)c(F)c3n2C)CO1 [Compound I-703]
41 | 0.009 µM | CC(=O)N[C@@H](C)CO[C@H]1CC[C@H](Oc2nc3cnc(OC4CC4)c(Cl)c3n2C)CC1 [Compound I-705]
42 | 0.048 µM | CC(=O)N[C@@H](C)CO[C@H]1CC[C@H](Oc2nc3c(Cl)cc(OCC(F)F)cc3n2C)CC1 [Compound I-706]
43 | 0.084 µM | CC(=O)N[C@@H](C)CO[C@H]1CC[C@H](Oc2nc3c(F)cc(OCC(F)F)cc3n2C)CC1 [Compound I-707]
44 | 0.005 µM | CC(=O)N[C@@H](C)CO[C@H]1CC[C@H](Oc2nc3cnc(OCC4CC4(F)F)c(Cl)c3n2C)CC1 (stereo partly drawn) [Compound I-708]
45 | 0.133 µM | CC(=O)N[C@@H](C)CO[C@H]1CC[C@H](Oc2nc3c(C)cc(OCC(F)F)cc3n2C)CC1 [Compound I-709]
46 | 0.006 µM | CC(=O)N[C@@H](C)CO[C@H]1CC[C@H](Oc2nc3c(Cl)nc(OC4CC4)c(Cl)c3n2C)CC1 [Compound I-710]
47 | 0.007 µM | CC(=O)N[C@@H](C)CO[C@H]1CC[C@H](Oc2nc3c(Cl)nc(OC4CC4)c(F)c3n2C)CC1 [Compound I-711]

Row | IC50 | Compound
48 | 0.003 µM | CC(=O)N[C@@H](C)CO[C@H]1CC[C@H](Oc2nc3c(F)cc(OC4CC(F)(F)C4)c(F)c3n2C)CC1 [Compound I-713]
49 | 0.044 µM | C[C@@H](CO[C@H]1CC[C@H](Oc2nc3c(F)cc(OCC(F)F)c(F)c3n2C)CC1)NC(=O)CC#N [Compound I-714]
50 | 0.17 µM | CC(=O)N[C@@H](C)[C@@H](C)O[C@H]1CC[C@H](Oc2nc3c(F)cc(OCC(F)F)c(F)c3n2C)CC1 [Compound I-716]
51 | 0.015 µM | CC(=O)N[C@@H](C)CO[C@H]1CC[C@H](Oc2nc3c(F)c(C)c(OCC(F)F)c(F)c3n2C)CC1 [Compound I-717]
52 | 0.775 µM | CCOc1ccc2nc(O[C@H]3CC[C@H](OC[C@H](C)NC(C)=O)CC3)n(C)c2c1C#N [Compound I-720]
53 | 0.009 µM | CC(=O)N[C@@H](C)CO[C@H]1CC[C@H](Oc2nc3cnc(OCC(F)F)c(Cl)c3n2C)CC1 [Compound I-722]
54 | 0.041 µM | CCOc1cc(F)c2nc(O[C@H]3CC[C@H](OC[C@H](C)NC(C)=O)CC3)n(C)c2c1 [Compound I-723]
55 | 0.009 µM | CC(=O)N[C@@H](C)CO[C@H]1CC[C@H](Oc2nc3cnc(OC[C@@H](C)F)c(Cl)c3n2C)CC1 [Compound I-724]
56 | 0.101 µM | CCOc1cc2c(nc(O[C@H]3CC[C@H](OC[C@H](C)NC(C)=O)CC3)n2C)c(Cl)c1Cl [Compound I-725]
57 | 0.009 µM | CC(=O)N[C@@H](C)CO[C@H]1CC[C@H](Oc2nc3c(C)nc(OC4CC4)c(Cl)c3n2C)CC1 [Compound I-726]
58 | 0.194 µM | CC(=O)N[C@@H](C)CO[C@H]1CC[C@H](Oc2nc3c(Cl)nc(C4CC4)c(Cl)c3n2C)CC1 [Compound I-727]
59 | 0.008 µM | CC(=O)N[C@@H](CF)CO[C@H]1CC[C@H](Oc2nc3cnc(OCC(F)F)c(Cl)c3n2C)CC1 [Compound I-728]
60 | 0.004 µM | C[C@@H](CO[C@H]1CC[C@H](Oc2nc3c(F)cc(OC4CC4)c(F)c3n2C)CC1)NC(=O)CC#N [Compound I-729]
61 | 0.91 µM | CC(=O)N[C@@H](CC#N)CO[C@H]1CC[C@H](Oc2nc3cnc(OCC(F)F)c(Cl)c3n2C)CC1 [Compound I-730]
62 | 0.26 µM | CC(=O)N[C@@H](C)[C@@H](C)O[C@H]1CC[C@H](Oc2nc3cnc(OCC(F)F)c(Cl)c3n2C)CC1 [Compound I-732]
63 | 0.009 µM | CC(=O)N[C@@H](C)CO[C@H]1CC[C@H](Oc2nc3c(F)c(Cl)c(OCC(F)F)c(F)c3n2C)CC1 [Compound I-733]
64 | 0.004 µM | CC(=O)N[C@@H](C)CO[C@H]1CC[C@H](Oc2nc3c(F)cc(OC4CC4)cc3n2C)CC1 [Compound I-734]
65 | 0.677 µM | CCOc1ccc2nc(O[C@H]3CC[C@H](OC[C@H](C)NC(C)=O)CC3)n(C)c2c1C1CC1 [Compound I-735]
66 | 0.087 µM | CC(=O)N[C@@H](C)CO[C@H]1CC[C@H](Oc2nc3cnc(OC(F)F)c(Cl)c3n2C)CC1 [Compound I-736]
